≈ marks a conversion by molar mass, not a printed value. Bounds are passed on as bounds.

For this data set the following is noted: buffer; pH 7.4; 200.0 µM.
In turn, `COc1ccccc1N1CCN(C(=O)c2c(-c3c(F)cccc3Cl)noc2C)CC1` showed a solubility (kinetic) of 52.9 µg/mL (≈ 123 µM).

The compound `Cc1cccc(C)c1OCCCCN1CCNCC1.O=C(O)C(=O)O` registered a kinetic solubility of 46 µg/mL. Turning to `Cn1cc(C(=O)C(=O)N2CCCC2)c2ccccc21`, the kinetic solubility is greater than 38.4 µg/mL.

The compound `Cc1cccc(N2C(=O)/C(=C/c3ccccn3)SC2=S)c1` returned a kinetic solubility of less than 0.3 µg/mL.

In turn, `O=C(NCCCn1ccnc1)c1cc2c(s1)CCCC2` gave a kinetic solubility greater than 43.4 µg/mL.

As to `O=C(CN1C(=O)CCSc2ccccc21)NC1CCCCC1`, the solubility (kinetic) amounted to 43.3 µg/mL (≈ 136 µM). Then `Cc1cccc(NC(=O)c2ccc(S(=O)(=O)N3CCOCC3)cc2)n1`, with 48.2 µg/mL (≈ 133 µM); and `COc1cc(N=c2ssnc2Cl)c(OC)cc1Cl`, with 15.6 µg/mL (≈ 48.3 µM).

Compound `CC(NCCC1(C(C)C)CCOC(C)(C)C1)c1cccs1` (configuration not stated) displayed a solubility (kinetic) greater than 46.4 µg/mL. On to `N#Cc1c(-c2cccnc2)c2c([nH]c1=O)-c1ccccc1OC2`, for which the solubility (kinetic) is greater than 45.2 µg/mL. Next, `COc1ccccc1NS(=O)(=O)c1ccc2c(c1)OCCO2`: 48 µg/mL (≈ 149 µM); `Cc1ccc(S(=O)(=O)N2CCC[C@H]2C(=O)Nc2ccccc2Cl)cc1`: 17.4 µg/mL (≈ 45.9 µM); `COc1ccc(OC)c(C(=O)c2coc3ccc(O)c(CN(C)C)c23)c1.Cl`: greater than 58.8 µg/mL. Next, `CNC(=S)/N=C/NOCc1c(Cl)cccc1Cl`: 9.5 µg/mL (≈ 32.5 µM). Then `CC1C(=O)N2CCCc3cc(NS(=O)(=O)c4ccccc4)cc1c32` (configuration not stated), with greater than 51.4 µg/mL.

Consider `CC1CCCC(NC(=S)NC(=O)c2ccco2)C1C` (configuration not stated), for which the solubility (kinetic) was determined as 5.4 µg/mL (≈ 19.3 µM).

The compound `Clc1ccc(CN2CCN(c3ncccn3)CC2)cc1Cl` registered a solubility (kinetic) of 13 µg/mL (≈ 40.2 µM). Next, `Cc1ccc(S(=O)(=O)N2CCOCC2)cc1NC(=O)COC(=O)Cc1ccccc1`: greater than 64.9 µg/mL; `CC(CN1C(C)CCCC1C)OC(=O)c1ccc(F)cc1.Cl` (configuration not stated): 46.5 µg/mL; `Cc1ccc2c(c1C)NC(=O)CC(c1ccccc1O)=N2`: 0.6 µg/mL (≈ 2.14 µM).

For the compound `Cc1ccc(NS(=O)(=O)c2ccccc2[N+](=O)[O-])cc1S(=O)(=O)N1CCCCC1`, the kinetic solubility is greater than 65.9 µg/mL. Then `O=C(CSc1ccc([N+](=O)[O-])cc1)Nc1cccc(S(=O)(=O)N2CCOCC2)c1`, with 17.1 µg/mL (≈ 39.1 µM). `O=C(COC(=O)/C=C/c1ccc(OC(F)F)cc1)Nc1ccc2[nH]c(=O)[nH]c2c1`: the solubility (kinetic) was 5.3 µg/mL (≈ 13.1 µM). Next, `CC(OC(=O)c1cccnc1)C(=O)Nc1ccc2c(c1)OCO2` (configuration not stated): 44 µg/mL (≈ 140 µM). In turn, `COc1cc(CN=Cc2c(O)n(C(C)(C)C)c(=O)[nH]c2=O)cc(OC)c1` had a solubility (kinetic) of 2.8 µg/mL (≈ 7.75 µM). Next, `CC1CC(C)CN(C(=O)COc2cccnc2[N+](=O)[O-])C1` (configuration not stated): greater than 44 µg/mL. Then `COc1ccc(S(=O)(=O)NCc2ccccn2)cc1OC`, with 43 µg/mL (≈ 139 µM); and `Oc1ccc(-c2ccccc2)cc1CN1CCCCCC1`, with 17.4 µg/mL (≈ 61.8 µM); and `COc1cc(OC)c(C(=O)O/N=C(\N)c2ccc(C)cc2)cc1OC`, with greater than 51.7 µg/mL. Then `O=C(Nc1nonc1-c1ccc(F)cc1)c1ccco1`, with greater than 41 µg/mL; and `O=C(COc1ccc([N+](=O)[O-])cc1)NCCc1nc2ccccc2[nH]1`, with 8.5 µg/mL (≈ 25 µM). In turn, `CC(O)c1nc2ccccc2n1CCCOc1ccccc1` (configuration not stated) registered a solubility (kinetic) greater than 44.5 µg/mL.

`CC(OC(=O)c1ccc(Cl)nc1)C(=O)Nc1ccc2c(c1)OCO2` (configuration not stated) came in with a kinetic solubility of 11.9 µg/mL (≈ 34.1 µM). Then `CC(=O)Oc1ccccc1C(=O)N(C1CCCCC1)C1CCCCC1`, with 44.5 µg/mL (≈ 130 µM); and `CC1(C)CC(=O)C=C(Nc2ccc([N+](=O)[O-])cc2)C1`, with 22.8 µg/mL (≈ 87.6 µM). For the compound `CCn1c(/C=C/c2ccc(O)c(O)c2)nc2ccccc2c1=O`, the kinetic solubility was 27 µg/mL (≈ 87.6 µM).

As to `N#CCc1nc(-c2cc3ccccc3oc2=O)cs1`, the solubility (kinetic) was 5.4 µg/mL (≈ 20.1 µM). Regarding `CC(=O)N1CCC(C(=O)NCCOc2cccc(C)c2)CC1`, the kinetic solubility is greater than 45.7 µg/mL. Next, `CCC(C)NC(=O)c1cc(-c2cccs2)nc2ccccc12` (configuration not stated): 2.4 µg/mL (≈ 7.73 µM); `CC(=O)c1c(C)[nH]c(C(=O)Nc2nc(C)cs2)c1C`: 4.1 µg/mL (≈ 14.8 µM); `COC(=O)c1sccc1NC(=O)c1ccc(C)cc1`: less than 0.6 µg/mL. Next, `Cc1ccccc1-c1noc(-c2ccccc2C(=O)O)n1`: greater than 42 µg/mL. Next, `Cc1cc(=O)c2cc(NC(=O)c3ccccc3Cl)ccc2[nH]1`: 9.4 µg/mL (≈ 30.1 µM).

In turn, `Cc1[nH]c2ccccc2c1-c1nc(N)sc1C` returned a solubility (kinetic) greater than 36.5 µg/mL. `N#CCCOC1(C#CCN2CCCC2)CCCCC1` had a solubility (kinetic) of 32.2 µg/mL (≈ 124 µM).

The compound `Cc1cccc(NS(=O)(=O)c2ccc3c(c2)oc(=O)n3C)c1C` yielded a solubility (kinetic) of 1.5 µg/mL (≈ 4.51 µM).

As to `COc1ccc(CC(=O)OCC(=O)NC2CC2)cc1`, the solubility (kinetic) is greater than 39.5 µg/mL. Next, `CC(C)NC(=O)Cn1cc(C(=O)c2ccccc2)c2ccccc21`: 1.7 µg/mL (≈ 5.31 µM).

`O=C1CCC(=O)N1c1ccc(-c2nc3sc4c(c3c(=O)o2)CCC4)cc1` displayed a kinetic solubility of 1 µg/mL (≈ 2.73 µM). Regarding `CC(C)c1ccc(NC(=O)COC(=O)[C@@H]2CCCN2C(=O)c2cccs2)cc1`, the kinetic solubility was found to be 13.3 µg/mL (≈ 33.2 µM). Then `CC(C)C(=O)NCC(c1ccc2c(c1)OCO2)N1CCOCC1` (configuration not stated), with greater than 48.1 µg/mL; and `CCOC(=O)CCCCCN1C(=O)c2cccc3cccc(c23)C1=O`, with 6.4 µg/mL (≈ 18.9 µM). `COc1cccc(CN2CCSCC2)c1OC`: the solubility (kinetic) amounted to 24.2 µg/mL (≈ 95.5 µM). Compound `O=C(O)c1cccc2c1C(=O)N(c1ccccc1)C2` returned a solubility (kinetic) greater than 38 µg/mL. Then `COc1ccc(NS(=O)(=O)c2cccc3ccccc23)cc1`, with 22.4 µg/mL (≈ 71.5 µM). With `Nc1cc(=O)[nH]c(SCC(=O)Nc2cccnc2Cl)n1`, the kinetic solubility is greater than 46.8 µg/mL. The compound `CC(C)(CCC(=S)N1CCOCC1)C1CCCCC1` yielded a solubility (kinetic) of 4.1 µg/mL (≈ 14.5 µM). Next, `COc1ccc(C(=O)Nc2ccccc2C(=O)Nc2cccnc2)cc1`: 8.8 µg/mL (≈ 25.3 µM); `COc1cccc(CNc2nc3ccccc3n2C)c1O`: 6.2 µg/mL (≈ 21.9 µM); `CN(C)CCN(C(=O)c1ccc2ccccc2c1)c1nc2ccc(F)cc2s1.Cl`: 30 µg/mL. `COc1cc(CO)ccc1OCC(=O)N1CCc2ccccc21` gave a solubility (kinetic) greater than 47 µg/mL. As for `CN(Cc1c(F)cccc1Cl)C(=O)C1=CC=CN2CCS(=O)(=O)N=C12`, the kinetic solubility is greater than 57.6 µg/mL. Then `O=[N+]([O-])c1ccc(-c2cn3c(n2)CCC3)cc1`, with 25.5 µg/mL (≈ 111 µM); and `CC(C)NC(=O)c1ccc2c(c1)N(CC(=O)N1CCCCC1)C(=O)C(C)(C)O2`, with 44.8 µg/mL (≈ 116 µM). Then `N#C/C(=C(/O)C(Cl)(Cl)Cl)c1nc2ccccc2[nH]1`, with 12.1 µg/mL (≈ 40 µM). In turn, `COc1cccc(CN(C)C(=O)Cc2c[nH]c3ccccc23)c1` displayed a kinetic solubility greater than 46.3 µg/mL. Then `COc1ccc(CC(=O)NCc2ccccc2)cc1`, with 22.6 µg/mL (≈ 88.5 µM); and `CCCCN(C(=O)c1cccs1)c1c(N)n(Cc2ccccc2)c(=O)[nH]c1=O`, with 6.1 µg/mL (≈ 15.3 µM). On to `CC(=O)c1ccc(NC(=S)NC(=O)/C=C/c2ccccc2)cc1`, for which the kinetic solubility was less than 0.3 µg/mL. Next, `CCCC(=O)N1CCC(Cc2ccccc2)CC1`: greater than 36.8 µg/mL. Then `O=C(CCc1ccc(O)c(O)c1)N/N=C/c1ccc2c(c1)OCO2`, with greater than 49.2 µg/mL; and `Cc1cc(Cl)nc(-c2ccccc2O)n1`, with less than 0.2 µg/mL.

Compound `CC(=O)c1sc(-c2ccccc2)nc1C` had a kinetic solubility of 13.9 µg/mL (≈ 64 µM). Then `Cc1onc(-c2ccccc2)c1-c1csc(COc2ccccc2)n1`, with 2.2 µg/mL (≈ 6.31 µM); and `Cc1cc(NC(=O)CSc2ncc(C(=O)O)n2-c2ccc(F)cc2)no1`, with 55.4 µg/mL (≈ 147 µM). Then `Cc1ccc2nc(NS(=O)(=O)c3cn(C)nc3C)sc2c1`, with greater than 48.4 µg/mL; and `CC(C)c1nc2sc3c(SCC(N)=O)ncnc3c2c2c1CCC2`, with 0.5 µg/mL (≈ 1.39 µM). Next, `COc1ccc(Cc2nc3ccccc3n2C)cc1.Cl`: 42.3 µg/mL; `O=C(Nc1ccc(OCc2ccccc2Cl)cc1)c1cccnc1`: 1.8 µg/mL (≈ 5.31 µM). `CN1CCN(S(=O)(=O)c2csc(C(N)=O)c2)CC1` came in with a kinetic solubility greater than 43.4 µg/mL. Next, `CC(Nc1nc(-c2ccccc2O)nc2ccccc12)c1ccccc1` (configuration not stated): less than 0.2 µg/mL.

In the case of `CCOc1ccc(NC(=O)c2nc(SCC)ncc2Cl)cc1`, the solubility (kinetic) is less than 0.2 µg/mL. For `O=[N+]([O-])c1ccc(O)c(C=Nc2cccc3ccccc23)c1`, the kinetic solubility came out at 24.6 µg/mL (≈ 84.2 µM). Then `O=C(Nc1ccccc1Oc1ccccc1)c1cccs1`, with 15.2 µg/mL (≈ 51.5 µM). `Cc1ccc(OCC(=O)N(Cc2ccccc2)c2ccccn2)cc1` had a solubility (kinetic) of 49.6 µg/mL (≈ 149 µM). Next, `COC(=O)C(Cc1ccc(O)cc1)NC(=O)CCc1ccco1` (configuration not stated): 46.5 µg/mL (≈ 147 µM); `Cc1ccc([N+](=O)[O-])cc1N`: 13.5 µg/mL (≈ 88.7 µM); `CCC(C)N1CCN(S(=O)(=O)c2ccc(NC(C)=O)cc2)CC1` (configuration not stated): 46.7 µg/mL (≈ 138 µM).

With `CC(C)(CCO)Nc1ncnc2onc(-c3ccc(F)cc3)c12`, the solubility (kinetic) was greater than 47.5 µg/mL. Next, `Cc1nc(N=C(N)N)nc2c(C)cccc12`: 29.8 µg/mL (≈ 138 µM); `O=C(CCN1C(=O)C2CC=CCC2C1=O)OCC(=O)c1ccc(F)cc1` (configuration not stated): greater than 53.9 µg/mL; `Cc1cccc(-c2nc(C#N)c(NCc3ccco3)o2)c1`: 1.9 µg/mL (≈ 6.8 µM). Then `CCOc1cc(C(=O)OCc2cc(=O)n3c(C)csc3n2)ccc1OC`, with 3.1 µg/mL (≈ 8.28 µM); and `Cc1ccnc(NC(=O)CNC(=O)c2ccccc2Br)c1`, with 48.5 µg/mL (≈ 139 µM); and `Cc1ccc(C)c(S(=O)(=O)c2c(C)cc(C)[nH]c2=O)c1`, with 28.9 µg/mL (≈ 99.2 µM). Next, `COc1ccc(CCN(C)Cc2cccc3ccccc23)cc1OC`: 37.1 µg/mL (≈ 111 µM); `CCOc1ccc(-c2c(C)n([O-])c3c([n+]2=O)CCCCC3)cc1`: greater than 47.2 µg/mL; `Clc1cccc(C2Nc3cccc4cccc(c34)N2)c1`: 5.3 µg/mL (≈ 18.9 µM). Compound `Cn1c(N)c(C(C[N+](=O)[O-])c2c(F)cccc2Cl)c(=O)n(C)c1=O` (configuration not stated) displayed a solubility (kinetic) greater than 53.5 µg/mL. Turning to `Cl.N=c1ccn(Cc2cccc(F)c2)cc1`, the solubility (kinetic) came out at 30.8 µg/mL. Next, `COP(=O)(OC)C(Nc1ccc([N+](=O)[O-])cc1)c1ccccc1` (configuration not stated): greater than 50.4 µg/mL; `Cc1cc(=O)n(C(C)(C)C)c(=O)n1Cc1ccccc1`: greater than 40.9 µg/mL.

What is called solubility (kinetic) is the concentration staying in solution when a stock, usually in DMSO, is diluted into the medium.

Values taken from PubChem BioAssay AID1996.
